From ChEMBL document CHEMBL1153122, “Pyrazolone based TGFbetaR1 kinase inhibitors” (Bioorg Med Chem Lett, 2010)

Key:
[1] = species: Mus musculus; assay: animal or person; settings: BALB/c, po, 1 h, read-out: INH
[2] = Oral bioavailability in rat at 5 mg/kg; assay type: ADME, organism-based; settings: in vivo
[3] = Half life in rat at 5 mg/kg, po and iv; assay type: ADME, organism-based; design: dose 5 mg/kg, route oral; settings: in vivo

Cn1c(-c2ccc3nccnc3c2)c(-c2cccc(Br)c2)c(=O)n1C
inhibition in vivo at 3 mg/kg [1]: 43% | bioavailability [2]: 34% | half-life [3]: 3 h
